# Data published in patent publication US9695155B2, “Herbicidal substituted pyrimidinyloxy benzene compounds” (E. I. DU PONT DE NEMOURS AND COMPANY, priority 2013, dated 2017).
# Legend:
# [1] = tested on: kochia; experiment: Test A preemergence; assay type: in vivo, Kochia scoparia; details: 0 to 100 scale where 0 is no effect and 100 is complete control
# Outline: (§1)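 Greenhouse pot test, loam/sand soil. Formulation: non-phytotoxic solvent mix plus surfactant. Pre: directed spray onto soil after sowing. Post: plants at 1–2 leaf, 2–10 cm. Rated visually vs untreated controls at ~10 d, 0 (no effect) to 100 (complete control).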
# [2] = tested on: ragweed; experiment: Test A preemergence; assay type: in vivo, Ambrosia elatior; details: 0 to 100 scale where 0 is no effect and 100 is complete control
# Outline: as §1
# [3] = tested on: Italian ryegrass; experiment: Test A preemergence; assay type: in vivo, Lolium multiflorum; details: 0 to 100 scale where 0 is no effect and 100 is complete control
# Outline: as §1
# [4] = tested on: barnyardgrass; experiment: Test A postemergence; assay type: in vivo, Echinochloa crus-galli
# Outline: as §1
# [5] = tested on: corn; experiment: Test A postemergence; assay type: in vivo, Zea mays
# Outline: as §1
# [6] = tested on: rice; experiment: Test B flooded paddy test; assay type: in vivo, Oryza sativa; details: Flood, 250 g ai/ha; 0 to 100 scale where 0 is no effect and 100 is complete control
# Outline: (§2)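 2-leaf stage plants; pots flooded to 3 cm, compound added to paddy water, depth maintained. Greenhouse 13–15 d. Visual rating vs untreated controls, 0 (no effect) to 100 (complete control); dash = no result.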
# [7] = tested on: Heteranthera limosa; experiment: Test B flooded paddy test; assay type: in vivo; details: Flood, 250 g ai/ha; 0 to 100 scale where 0 is no effect and 100 is complete control
# Outline: as §2
# [8] = tested on: barnyardgrass; experiment: Test B flooded paddy test; assay type: in vivo, Echinochloa crus-galli; details: Flood, 250 g ai/ha; 0 to 100 scale where 0 is no effect and 100 is complete control
# Outline: as §2
# [9] = tested on: Italian ryegrass; experiment: Test C postemergence; assay type: in vivo, Lolium multiflorum; details: for Plant response rating (0 to 100), Ryegrass, Italian: 0 is no effect, 100 is complete control; for Plant response rating, Ryegrass, Italian / Ryegrass, Italian plant response rating: scale 0 to 100 (0 no effect, 100 complete control); for Ryegrass, Italian plant response rating: 31 g ai/ha
# Outline: (§3)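 Visual injury score versus untreated controls, 0 = no effect, 100 = complete control, taken 13 to 15 days after treatment in the greenhouse. Pre-emergence pots held loam/sand; post-emergence plants grew in sphagnum peat/vermiculite mix and were sprayed at the 1- to 4-leaf stage.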
# [10] = tested on: galium; experiment: Test C postemergence; assay type: in vivo, Galium aparine; details: for Plant response rating (0 to 100), Galium: 0 is no effect, 100 is complete control; for Plant response rating, Galium / Galium plant response rating: scale 0 to 100 (0 no effect, 100 complete control); for Galium plant response rating: 31 g ai/ha
# Outline: as §3
# [11] = tested on: corn; experiment: Test C postemergence; assay type: in vivo, Zea mays; details: for Plant response rating (0 to 100), Corn: 0 is no effect, 100 is complete control; for Plant response rating, Corn / Corn plant response rating: scale 0 to 100 (0 no effect, 100 complete control); for Corn plant response rating: 31 g ai/ha
# Outline: as §3
# [12] = tested on: lambsquarters; experiment: Test C postemergence; assay type: in vivo, Chenopodium album; details: for Plant response rating (0 to 100), Lambsquarters: 0 is no effect, 100 is complete control; for Plant response rating, Lambsquarters / Lambsquarters plant response rating: scale 0 to 100 (0 no effect, 100 complete control); for Lambsquarters plant response rating: 31 g ai/ha
# Outline: as §3
# [13] = tested on: pigweed; experiment: Test C postemergence; assay type: in vivo, Amaranthus retroflexus; details: for Plant response rating (0 to 100), Pigweed: 0 is no effect, 100 is complete control; for Plant response rating, Pigweed / Pigweed plant response rating: scale 0 to 100 (0 no effect, 100 complete control); for Pigweed plant response rating: 31 g ai/ha
# Outline: as §3
# [14] = tested on: waterhemp; experiment: Test C postemergence; assay type: in vivo, Amaranthus rudis; details: for Plant response rating (0 to 100), Waterhemp: 0 is no effect, 100 is complete control; for Plant response rating, Waterhemp / Waterhemp plant response rating: scale 0 to 100 (0 no effect, 100 complete control); for Waterhemp plant response rating: 31 g ai/ha
# Outline: as §3
# [15] = 125 g ai/ha, 0 to 100 scale where 0 is no effect and 100 is complete control
# [16] = 500 g ai/ha, 0 to 100 scale where 0 is no effect and 100 is complete control
# [17] = 125 g ai/ha, postemergence, visual rating
# [18] = postemergence, visual rating, 13 to 15 days
# [19] = Postemergence, 62 g ai/ha, 13 to 15 days
# [20] = 1000 g ai/ha, 0 to 100 scale, 0 no effect, 100 complete control
SMILES,"Plant response rating, Barnyardgrass [4, 16]","Plant response rating, Corn [5, 16]","Plant response rating, Rice [6]","Plant response rating, Ducksalad [7]","Plant response rating, Barnyardgrass [8]","Plant response rating (0 to 100), Ryegrass, Italian ([9]; 16 g ai/ha, postemergence)","Plant response rating, Ryegrass, Italian [9, 17]","Plant response rating (0 to 100), Galium ([10]; 16 g ai/ha, postemergence)","Plant response rating, Galium [10, 17]","Plant response rating (0 to 100), Corn ([11]; 16 g ai/ha, postemergence)","Plant response rating, Corn [11, 17]","Plant response rating (0 to 100), Lambsquarters ([12]; 16 g ai/ha, postemergence)","Plant response rating, Lambsquarters [12, 17]","Plant response rating (0 to 100), Pigweed ([13]; 16 g ai/ha, postemergence)","Plant response rating, Pigweed [13, 17]","Plant response rating (0 to 100), Waterhemp ([14]; 16 g ai/ha, postemergence)","Plant response rating, Waterhemp [14, 17]","Ryegrass, Italian plant response rating [9, 18]","Plant response rating, Ryegrass, Italian [9, 19]","Galium plant response rating [10, 18]",further results
Clc1cnc(Oc2cccc(Br)c2-n2cc(I)nn2)nc1 [Compound 117],90,50,0,40,0,0,5,80,80,5,5,45,75,80,90,60,90,,,,"Plant response rating, Kochia ([1]; 125 g ai/ha): 70; Kochia plant response rating ([1]; 500 g ai/ha): 100; Plant response rating, Ragweed ([2]; 125 g ai/ha): 20; Ragweed plant response rating ([2]; 500 g ai/ha): 60; Plant response rating, Ryegrass, Italian ([3]; 125 g ai/ha): 20; Ryegrass, Italian plant response rating ([3]; 500 g ai/ha): 30; Plant response rating, Barnyardgrass [4, 15]: 70; Plant response rating, Corn [5, 15]: 30; Plant response rating, Ryegrass, Italian ([9]; Postemergence, 62 g ai/ha): 0; Plant response rating, Galium ([10]; Postemergence, 62 g ai/ha): 70; Plant response rating, Corn ([11]; Postemergence, 62 g ai/ha): 5; Plant response rating, Lambsquarters ([12]; Postemergence, 62 g ai/ha): 50; Plant response rating, Pigweed ([13]; Postemergence, 62 g ai/ha): 85; Plant response rating, Waterhemp ([14]; Postemergence, 62 g ai/ha): 85"
Clc1cnc(Oc2cccc(Br)c2-n2cc(Cl)cn2)nc1 [Compound 221],100,50,0,0,0,0,5,60,90,0,10,15,65,60,85,65,80,0,5,55,"Barnyardgrass plant response rating [4, 15]: 50; Corn plant response rating [5, 15]: 10; Plant response rating, Galium [10, 19]: 55; Corn plant response rating [11, 18]: 5; Plant response rating, Corn [11, 19]: 10; Lambsquarters plant response rating [12, 18]: 60; Plant response rating, Lambsquarters [12, 19]: 50; Pigweed plant response rating [13, 18]: 75; Plant response rating, Pigweed [13, 19]: 50; Waterhemp plant response rating [14, 18]: 70; Plant response rating, Waterhemp [14, 19]: 80"
Clc1cnc(Oc2ccccc2-n2cc(I)nn2)nc1 [Compound 222],,,0,50,0,0,,70,,5,,65,,70,,70,,0,0,85,"Plant response rating, Barnyardgrass [4, 20]: 100; Plant response rating, Corn [5, 20]: 50; Plant response rating (0 to 100), Ryegrass, Italian ([9]; 8 g ai/ha, postemergence): 0; Plant response rating (0 to 100), Galium ([10]; 8 g ai/ha, postemergence): 65; Plant response rating, Galium [10, 19]: 85; Plant response rating (0 to 100), Corn ([11]; 8 g ai/ha, postemergence): 0; Corn plant response rating [11, 18]: 5; Plant response rating, Corn [11, 19]: 0; Plant response rating (0 to 100), Lambsquarters ([12]; 8 g ai/ha, postemergence): 50; Lambsquarters plant response rating [12, 18]: 65; Plant response rating, Lambsquarters [12, 19]: 75; Plant response rating (0 to 100), Pigweed ([13]; 8 g ai/ha, postemergence): 65; Pigweed plant response rating [13, 18]: 80; Plant response rating, Pigweed [13, 19]: 85; Plant response rating (0 to 100), Waterhemp ([14]; 8 g ai/ha, postemergence): 60; Waterhemp plant response rating [14, 18]: 90; Plant response rating, Waterhemp [14, 19]: 90"
